Legend:
giant foxtail [1] = assay: Test A pre-/postemergence greenhouse test; type: in vivo, Setaria faberi; details: for Foxtail, Giant plant response rating: 0 to 100 scale; for Plant response rating, Foxtail, Giant: 0 to 100 scale where 0 is no effect and 100 is complete control
Method in brief: (§1)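 Test compounds in non-phytotoxic solvent with surfactant were applied as a preemergence soil spray to seeded loam/sand pots and, concurrently, postemergence to plants at 2–10 cm, one- to two-leaf stage. About ten days in greenhouse, then injury visually rated against untreated controls.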

velvetleaf = assay: Test A pre-/postemergence greenhouse test; type: in vivo, Abutilon theophrasti; details: for Velvetleaf plant response rating: 0 to 100 scale; for Plant response rating, Velvetleaf: 0 to 100 scale where 0 is no effect and 100 is complete control
Method in brief: as §1

wheat = assay: Test A pre-/postemergence greenhouse test; type: in vivo, Triticum aestivum; details: for Wheat plant response rating: 0 to 100 scale; for Plant response rating, Wheat: 0 to 100 scale where 0 is no effect and 100 is complete control
Method in brief: as §1

corn = assay: Test A pre-/postemergence greenhouse test; type: in vivo, Zea mays; details: for Corn plant response rating: 0 to 100 scale; for Plant response rating, Corn: 0 to 100 scale where 0 is no effect and 100 is complete control
Method in brief: as §1

downy brome = assay: Test C pre-/postemergence test; type: in vivo, Bromus tectorum
Method in brief: (§2)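 Test chemicals were formulated with surfactant in a non-phytotoxic solvent and sprayed both on freshly planted seeds (preemergence) and on 1- to 4-leaf plants of 2–18 cm (postemergence). Flooded-paddy pots received compound directly into 3 cm of standing water, maintained for the test.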

catchweed bedstraw = assay: Test C pre-/postemergence test; type: in vivo, Galium aparine
Method in brief: as §2

bermudagrass = assay: Test C pre-/postemergence test; type: in vivo, Cynodon dactylon
Method in brief: as §2

Surinam grass = assay: Test C pre-/postemergence test; type: in vivo, Brachiaria decumbens
Method in brief: as §2

crabgrass = assay: Test C pre-/postemergence test; type: in vivo, Digitaria sanguinalis
Method in brief: as §2

giant foxtail [2] = assay: Test C pre-/postemergence test; type: in vivo, Setaria faberii
Method in brief: as §2

johnsongrass = assay: Test C pre-/postemergence test; type: in vivo, Sorghum halepense
Method in brief: as §2

lambsquarters = assay: Test C pre-/postemergence test; type: in vivo, Chenopodium album
Method in brief: as §2

morningglory = assay: Test C pre-/postemergence test; type: in vivo, Ipomoea coccinea
Method in brief: as §2

pigweed = assay: Test C pre-/postemergence test; type: in vivo, Amaranthus retroflexus
Method in brief: as §2

soybean = assay: Test C pre-/postemergence test; type: in vivo, Glycine max
Method in brief: as §2

rice = assay: Test C flooded paddy test; type: in vivo, Oryza sativa; details: Flood
Method in brief: (§3)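 Compound was added to standing water 3 cm above soil, flood maintained, and plants held in a greenhouse before visual scoring against controls at 13 to 15 days.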

barnyardgrass = assay: Test C flooded paddy test; type: in vivo, Echinochloa crus-galli; details: Flood
Method in brief: as §3

[3] = Postemergence, 125 g ai/ha, 0 is no effect, 100 is complete control
[4] = Postemergence, 500 g ai/ha, 0 is no effect, 100 is complete control
[5] = Preemergence, 125 g ai/ha, 0 no effect, 100 complete control
[6] = 31 g ai/ha, Preemergence, scale 0 to 100
[7] = 62 g ai/ha, preemergence, scale 0 (no effect) to 100 (complete control)
[8] = preemergence, 125 g ai/ha, scale 0 (no effect) to 100 (complete control)
[9] = 31 g ai/ha, scale 0 to 100 (0 no effect, 100 complete control)
[10] = 62 g ai/ha, scale 0 to 100, 0 no effect, 100 complete control, 13 to 15 days
[11] = 125 g ai/ha, scale 0 to 100, 0 no effect, 100 complete control, 13 to 15 days
[12] = 250 g ai/ha, scale 0 to 100 (0 no effect, 100 complete control)
[13] = 62 g ai/ha, Preemergence, scale 0 to 100
[14] = 125 g ai/ha, preemergence, scale 0 (no effect) to 100 (complete control)
[15] = Preemergence, 31 g ai/ha, scale 0 to 100 (0 no effect, 100 complete control)
[16] = preemergence, 250 g ai/ha, scale 0 (no effect) to 100 (complete control)
[17] = 62 g ai/ha, scale 0 to 100 (0 no effect, 100 complete control)
[18] = 250 g ai/ha, scale 0 to 100, 0 no effect, 100 complete control, 13 to 15 days

Cn1nc(C(F)(F)F)c(CS(=O)(=O)c2cccc[n+]2[O-])c1OC(F)F [Compound 4]
Foxtail, Giant plant response rating (giant foxtail [1]; [3]): 80
Foxtail, Giant plant response rating (giant foxtail [1]; [4]): 90
Foxtail, Giant plant response rating (giant foxtail [1]; [5]): 100
Plant response rating, Foxtail, Giant (giant foxtail [1]; Preemergence, 500 g ai/ha): 100
Velvetleaf plant response rating (velvetleaf; [3]): 50
Velvetleaf plant response rating (velvetleaf; [4]): 80
Velvetleaf plant response rating (velvetleaf; [5]): 50
Plant response rating, Velvetleaf (velvetleaf; Preemergence, 500 g ai/ha): 90
Wheat plant response rating (wheat; [3]): 60
Wheat plant response rating (wheat; [4]): 60
Wheat plant response rating (wheat; [5]): 50
Plant response rating, Wheat (wheat; Preemergence, 500 g ai/ha): 80
Corn plant response rating (corn; [3]): 30
Corn plant response rating (corn; [4]): 60
Corn plant response rating (corn; [5]): 20
Plant response rating, Corn (corn; Preemergence, 500 g ai/ha): 80
Bromegrass, Downy plant response rating (downy brome; [6]): 0
Bromegrass, Downy plant response rating (downy brome; [7]): 0
Plant response rating (0 to 100), Bromegrass, Downy (downy brome; Preemergence, 250 g ai/ha): 70
Bromegrass, Downy plant response rating (downy brome; [8]): 0
Galium plant response rating (catchweed bedstraw; [6]): 70
Galium plant response rating (catchweed bedstraw; [7]): 90
Plant response rating (0 to 100), Galium (catchweed bedstraw; Preemergence, 250 g ai/ha): 100
Galium plant response rating (catchweed bedstraw; [8]): 100
Bermudagrass plant response rating (bermudagrass; [6]): 100
Bermudagrass plant response rating (bermudagrass; [7]): 100
Plant response rating (0 to 100), Bermudagrass (bermudagrass; Preemergence, 250 g ai/ha): 100
Bermudagrass plant response rating (bermudagrass; [8]): 100
Surinam Grass plant response rating (Surinam grass; [7]): 100
Plant response rating (0 to 100), Surinam Grass (Surinam grass; Preemergence, 250 g ai/ha): 100
Surinam Grass plant response rating (Surinam grass; [8]): 100
Crabgrass, Large plant response rating (crabgrass; [6]): 98
Crabgrass, Large plant response rating (crabgrass; [7]): 100
Plant response rating (0 to 100), Crabgrass, Large (crabgrass; Preemergence, 250 g ai/ha): 100
Crabgrass, Large plant response rating (crabgrass; [8]): 100
Foxtail, Giant plant response rating (giant foxtail [2]; [6]): 90
Foxtail, Giant plant response rating (giant foxtail [2]; [7]): 100
Plant response rating (0 to 100), Foxtail, Giant (giant foxtail [2]; Preemergence, 250 g ai/ha): 100
Foxtail, Giant plant response rating (giant foxtail [2]; [8]): 100
Johnsongrass plant response rating (johnsongrass; [6]): 95
Johnsongrass plant response rating (johnsongrass; [7]): 95
Plant response rating (0 to 100), Johnsongrass (johnsongrass; Preemergence, 250 g ai/ha): 100
Johnsongrass plant response rating (johnsongrass; [8]): 100
Lambsquarters plant response rating (lambsquarters; [6]): 0
Lambsquarters plant response rating (lambsquarters; [7]): 50
Plant response rating (0 to 100), Lambsquarters (lambsquarters; Preemergence, 250 g ai/ha): 100
Lambsquarters plant response rating (lambsquarters; [8]): 80
Morningglory plant response rating (morningglory; [6]): 0
Morningglory plant response rating (morningglory; [7]): 0
Plant response rating (0 to 100), Morningglory (morningglory; Preemergence, 250 g ai/ha): 100
Morningglory plant response rating (morningglory; [8]): 85
Pigweed plant response rating (pigweed; [6]): 100
Pigweed plant response rating (pigweed; [7]): 100
Plant response rating (0 to 100), Pigweed (pigweed; Preemergence, 250 g ai/ha): 100
Pigweed plant response rating (pigweed; [8]): 100
Soybean plant response rating (soybean; [6]): 0
Soybean plant response rating (soybean; [8]): 0
Plant response rating, Rice (rice; [9]): 10
Plant response rating, Rice (rice; [10]): 30
Plant response rating, Rice (rice; [11]): 70
Plant response rating, Rice (rice; [12]): 80
Plant response rating, Barnyardgrass (barnyardgrass; [9]): 0
Plant response rating, Barnyardgrass (barnyardgrass; [10]): 35
Plant response rating, Barnyardgrass (barnyardgrass; [11]): 85
Plant response rating, Barnyardgrass (barnyardgrass; [12]): 90

CC(Oc1c(C[S+]([O-])c2cccc[n+]2[O-])c(C(F)(F)F)nn1C)C(F)(F)F (stereo not drawn) [Compound 77]
Plant response rating, Foxtail, Giant (giant foxtail [1]; Postemergence, 125 g ai/ha): 80
Foxtail, Giant plant response rating (giant foxtail [1]; [4]): 90
Foxtail, Giant plant response rating (giant foxtail [1]; [5]): 90
Plant response rating, Foxtail, Giant (giant foxtail [1]; Preemergence, 500 g ai/ha): 100
Plant response rating, Velvetleaf (velvetleaf; Postemergence, 125 g ai/ha): 50
Velvetleaf plant response rating (velvetleaf; [4]): 90
Velvetleaf plant response rating (velvetleaf; [5]): 50
Plant response rating, Velvetleaf (velvetleaf; Preemergence, 500 g ai/ha): 100
Plant response rating, Wheat (wheat; Postemergence, 125 g ai/ha): 50
Wheat plant response rating (wheat; [4]): 70
Wheat plant response rating (wheat; [5]): 50
Plant response rating, Wheat (wheat; Preemergence, 500 g ai/ha): 100
Plant response rating, Corn (corn; Postemergence, 125 g ai/ha): 50
Corn plant response rating (corn; [4]): 60
Corn plant response rating (corn; [5]): 50
Plant response rating, Corn (corn; Preemergence, 500 g ai/ha): 80
Bromegrass, Downy plant response rating (downy brome; [13]): 45
Bromegrass, Downy plant response rating (downy brome; [14]): 70
Plant response rating, Bromegrass, Downy (downy brome; [15]): 0
Bromegrass, Downy plant response rating (downy brome; [16]): 100
Galium plant response rating (catchweed bedstraw; [13]): 100
Galium plant response rating (catchweed bedstraw; [14]): 100
Plant response rating, Galium (catchweed bedstraw; [15]): 100
Galium plant response rating (catchweed bedstraw; [16]): 100
Bermudagrass plant response rating (bermudagrass; 62 g ai/ha, Preemergence, scale 0 to 100 (0 no effect, 100 complete control)): 100
Bermudagrass plant response rating (bermudagrass; [14]): 100
Plant response rating, Bermudagrass (bermudagrass; [15]): 100
Bermudagrass plant response rating (bermudagrass; [16]): 100
Surinam Grass plant response rating (Surinam grass; [13]): 100
Surinam Grass plant response rating (Surinam grass; [14]): 100
Plant response rating, Surinam Grass (Surinam grass; [15]): 85
Surinam Grass plant response rating (Surinam grass; [16]): 100
Crabgrass, Large plant response rating (crabgrass; [13]): 100
Crabgrass, Large plant response rating (crabgrass; [14]): 100
Plant response rating, Crabgrass, Large (crabgrass; [15]): 80
Crabgrass, Large plant response rating (crabgrass; [16]): 100
Foxtail, Giant plant response rating (giant foxtail [2]; [13]): 100
Foxtail, Giant plant response rating (giant foxtail [2]; [14]): 100
Plant response rating, Foxtail, Giant (giant foxtail [2]; [15]): 80
Foxtail, Giant plant response rating (giant foxtail [2]; [16]): 100
Johnsongrass plant response rating (johnsongrass; [13]): 100
Johnsongrass plant response rating (johnsongrass; [14]): 100
Plant response rating, Johnsongrass (johnsongrass; [15]): 60
Johnsongrass plant response rating (johnsongrass; [16]): 100
Lambsquarters plant response rating (lambsquarters; [13]): 100
Lambsquarters plant response rating (lambsquarters; [14]): 100
Plant response rating, Lambsquarters (lambsquarters; [15]): 100
Lambsquarters plant response rating (lambsquarters; [16]): 100
Morningglory plant response rating (morningglory; [13]): 65
Morningglory plant response rating (morningglory; [14]): 100
Plant response rating, Morningglory (morningglory; [15]): 60
Morningglory plant response rating (morningglory; [16]): 100
Pigweed plant response rating (pigweed; [13]): 100
Pigweed plant response rating (pigweed; [14]): 100
Plant response rating, Pigweed (pigweed; [15]): 100
Pigweed plant response rating (pigweed; [16]): 100
Soybean plant response rating (soybean; [13]): 45
Soybean plant response rating (soybean; [14]): 70
Plant response rating, Soybean (soybean; [15]): 40
Soybean plant response rating (soybean; [16]): 100
Plant response rating, Rice (rice; [17]): 30
Plant response rating, Rice (rice; [18]): 70
Plant response rating, Barnyardgrass (barnyardgrass; [17]): 0
Plant response rating, Barnyardgrass (barnyardgrass; [18]): 75
